Molecules are shown by their SMILES. pEC50: −log10 of the molar value. A value given as a limit tells only on which side of the number the result lay.

In one experiment the target is T1, CFTR ΔF508 mutant (Homo sapiens, UniProt P13569, DEL508-508).
T1 construct: expressed in transfected cells; host or cells: CFBE41o- cells, adenoviral transduction
Kind of experiment: YFP-halide influx assay for the CFTR-ΔF508 mutation (CFBE41o- cells). In kind it is cell-based. The conditions noted are these: forskolin 10.67 μM; for pEC50: from (1−F/F0) vs concentration plot. The text has this:
The YFP halide influx assay measured the functionality of the cystic fibrosis Transmembrane Conductance regulator (CFTR) channels in the cystic fibrosis bronchial epithelium cell line CFBE41o-. The assay was used to evaluate the capacity of compounds to increase the open probability of existing CFTR channels in the membrane. It makes use of the observation that the yellow fluorescent protein (YFP) variant YFP H148Q, I152L, F47L has its fluorescence substantially quenched by halide ions like Cl^− and I^− (Galietta, L. J. V., Haggie, P. M., Verkman, A. S., 2001. Green fluorescent protein-based halide indicators with improved chloride and iodide affinities. FEBS Lett. 499, 220-224. doi:10.1016/S0014-5793(01)02561-3; Nagai, T., Ibata, K., Park, E. S., Kubota, M., Mikoshiba, K., Miyawaki, A., 2002. A variant of yellow fluorescent protein with fast and efficient maturation for cell-biological applications. Nat. Biotechnol. 20, 87-90. doi: 10.1038/nbt0102-87).
For this purpose, CFBE41o-cells were seeded in 384 well plates (3000 CFBE cells/well). One day after seeding, the CFBE cells were transduced with adenoviral vectors that direct the expression of the CFTR ΔF508 mutant and of the YFP reporter. Cells were incubated at 27° C., 5% CO2 for 24 hours so as to allow for the proper folding and migration to the membrane of the CFTR channel or treated with a CFTR modulator during 24 hours at 37° C.
The I-induced quenching of fluorescence was recorded on an immediately after injection of iodide for 2 minutes on an FDSS/μCell (Hamamatsu). The capacity of a compound to increase the channel opening was directly correlated with the decrease in fluorescence, and was expressed as (1−(fluorescence after 36 seconds (F)/fluorescence before injection (F0))) and an EC50 was derived from a (1−F/F0) vs compound concentration plot.

The next experiment deals with T2, CFTR G551D mutant (Homo sapiens, UniProt P13569, G551D).
T2 construct: expressed in transfected cells; host or cells: HEK293 cells, reverse transfection with plasmids
T2 sequence (P13569 whole entry G551D): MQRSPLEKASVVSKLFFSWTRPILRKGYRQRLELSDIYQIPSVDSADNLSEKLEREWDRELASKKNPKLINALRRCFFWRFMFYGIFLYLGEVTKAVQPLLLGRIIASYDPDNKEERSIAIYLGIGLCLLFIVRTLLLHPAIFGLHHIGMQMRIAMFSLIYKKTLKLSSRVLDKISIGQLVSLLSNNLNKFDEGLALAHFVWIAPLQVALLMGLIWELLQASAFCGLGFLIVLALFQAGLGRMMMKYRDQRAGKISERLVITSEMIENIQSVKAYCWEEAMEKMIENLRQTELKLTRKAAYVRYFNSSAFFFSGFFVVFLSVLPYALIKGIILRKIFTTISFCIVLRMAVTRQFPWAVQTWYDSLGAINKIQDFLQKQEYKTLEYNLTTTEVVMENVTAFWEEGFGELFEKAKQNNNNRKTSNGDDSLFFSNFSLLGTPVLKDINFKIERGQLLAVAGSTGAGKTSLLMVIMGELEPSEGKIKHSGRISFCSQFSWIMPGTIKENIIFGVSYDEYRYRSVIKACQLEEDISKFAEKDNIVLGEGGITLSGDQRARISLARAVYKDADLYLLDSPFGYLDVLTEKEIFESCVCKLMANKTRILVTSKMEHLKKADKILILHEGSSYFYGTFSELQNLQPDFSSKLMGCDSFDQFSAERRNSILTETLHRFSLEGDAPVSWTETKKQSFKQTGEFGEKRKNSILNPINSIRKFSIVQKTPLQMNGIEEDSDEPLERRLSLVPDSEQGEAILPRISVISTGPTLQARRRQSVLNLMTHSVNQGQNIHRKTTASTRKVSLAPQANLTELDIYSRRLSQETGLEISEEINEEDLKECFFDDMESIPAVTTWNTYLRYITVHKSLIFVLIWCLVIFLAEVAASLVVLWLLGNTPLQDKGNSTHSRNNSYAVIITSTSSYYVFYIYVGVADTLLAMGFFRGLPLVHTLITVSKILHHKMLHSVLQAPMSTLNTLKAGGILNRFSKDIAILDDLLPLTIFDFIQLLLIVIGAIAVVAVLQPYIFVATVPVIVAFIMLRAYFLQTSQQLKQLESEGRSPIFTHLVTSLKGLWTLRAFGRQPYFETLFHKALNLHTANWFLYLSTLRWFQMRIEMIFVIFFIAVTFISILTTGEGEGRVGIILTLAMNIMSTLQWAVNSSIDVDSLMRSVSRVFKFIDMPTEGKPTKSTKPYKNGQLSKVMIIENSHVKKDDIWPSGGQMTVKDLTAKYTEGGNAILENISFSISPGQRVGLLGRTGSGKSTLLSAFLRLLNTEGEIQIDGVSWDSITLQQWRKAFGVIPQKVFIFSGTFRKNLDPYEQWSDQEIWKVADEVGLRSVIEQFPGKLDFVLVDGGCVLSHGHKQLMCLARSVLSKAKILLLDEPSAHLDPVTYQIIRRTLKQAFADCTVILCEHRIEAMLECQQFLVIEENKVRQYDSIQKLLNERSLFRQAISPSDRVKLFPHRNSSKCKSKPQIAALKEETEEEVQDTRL
Kind of experiment: YFP-halide influx assay for the CFTR-G551D mutation (HEK293 cells). In kind it is cell-based. Particulars: forskolin 10.67 μM. The text has this: The YFP halide influx assay measured the functionality of the cystic fibrosis Transmembrane Conductance regulator (CFTR) channels. The assay was used to evaluate the capacity of compounds to increase the channel opening of existing mutant CFTR channels in the membrane. It makes use of the observation that the yellow fluorescent protein (YFP) variant YFP H148Q, I152L, F47L has its fluorescence substantially quenched by halide ions like Cl^− and I^− (Galietta, L. J. V., Haggie, P. M., Verkman, A. S., 2001. Green fluorescent protein-based halide indicators with improved chloride and iodide affinities. FEBS Lett. 499, 220-224. doi:10.1016/S0014-5793(01)02561-3).
For this purpose, HEK293-cells were seeded in 96 well plates. During seeding, the cells were reverse-transfected with plasmid vectors that direct the expression of the CFTR G551D mutant and of the YFP reporter. Cells were incubated at 37° C., 5% CO2 for 24 hours so as to allow for sufficient expression of the CFTR protein.
The I^−-induced quenching of fluorescence was recorded immediately after injection of I^− for 7 seconds. The capacity of a compound to increase the channel opening was directly correlated with the decrease in fluorescence, and was expressed as (1−(fluorescence after 7 seconds (F)/fluorescence before injection (F0))) and an EC50 was derived from a (1−F/F0) vs compound concentration plot.

T1 sequence (P13569 with tags, fused parts or gaps DEL508-508): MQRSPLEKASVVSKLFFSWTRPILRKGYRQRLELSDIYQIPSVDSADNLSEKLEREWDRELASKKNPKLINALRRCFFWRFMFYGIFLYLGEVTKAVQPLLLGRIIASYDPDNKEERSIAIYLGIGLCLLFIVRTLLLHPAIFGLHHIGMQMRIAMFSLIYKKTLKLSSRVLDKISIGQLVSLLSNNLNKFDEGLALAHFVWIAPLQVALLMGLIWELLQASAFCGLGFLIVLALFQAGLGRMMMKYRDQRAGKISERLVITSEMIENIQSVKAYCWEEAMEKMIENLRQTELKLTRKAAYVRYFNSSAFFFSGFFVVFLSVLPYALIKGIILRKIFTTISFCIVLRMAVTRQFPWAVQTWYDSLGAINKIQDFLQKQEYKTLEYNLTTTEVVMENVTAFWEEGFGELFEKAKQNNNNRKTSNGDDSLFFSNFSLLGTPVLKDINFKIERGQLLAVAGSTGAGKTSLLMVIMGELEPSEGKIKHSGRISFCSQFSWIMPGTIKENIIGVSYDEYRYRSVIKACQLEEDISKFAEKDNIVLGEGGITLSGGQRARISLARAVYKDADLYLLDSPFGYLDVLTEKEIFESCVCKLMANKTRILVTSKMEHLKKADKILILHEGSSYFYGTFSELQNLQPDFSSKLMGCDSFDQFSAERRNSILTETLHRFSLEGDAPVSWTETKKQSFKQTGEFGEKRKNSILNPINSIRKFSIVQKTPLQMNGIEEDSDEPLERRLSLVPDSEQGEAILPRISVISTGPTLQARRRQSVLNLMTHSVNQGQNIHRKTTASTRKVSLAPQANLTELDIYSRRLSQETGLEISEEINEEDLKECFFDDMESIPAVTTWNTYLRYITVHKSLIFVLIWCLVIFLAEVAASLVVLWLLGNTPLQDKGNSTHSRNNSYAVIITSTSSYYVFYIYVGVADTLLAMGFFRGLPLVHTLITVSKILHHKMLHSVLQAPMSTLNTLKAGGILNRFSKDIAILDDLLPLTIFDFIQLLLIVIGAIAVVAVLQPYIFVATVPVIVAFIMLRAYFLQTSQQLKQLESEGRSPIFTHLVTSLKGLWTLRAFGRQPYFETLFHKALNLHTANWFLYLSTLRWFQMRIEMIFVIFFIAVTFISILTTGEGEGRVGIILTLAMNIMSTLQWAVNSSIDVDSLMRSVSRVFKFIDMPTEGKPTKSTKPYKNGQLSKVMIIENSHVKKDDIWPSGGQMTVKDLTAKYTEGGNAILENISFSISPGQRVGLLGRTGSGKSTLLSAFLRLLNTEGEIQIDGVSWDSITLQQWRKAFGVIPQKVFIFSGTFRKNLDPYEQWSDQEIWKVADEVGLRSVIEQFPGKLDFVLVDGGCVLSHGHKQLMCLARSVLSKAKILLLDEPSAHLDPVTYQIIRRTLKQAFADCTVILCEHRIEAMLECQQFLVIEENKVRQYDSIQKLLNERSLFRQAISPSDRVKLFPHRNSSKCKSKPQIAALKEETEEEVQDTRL

For the compound `Nc1cc(S(=O)(=O)c2ccc(C(F)(F)F)cc2)cnc1C(=O)N1CC(C(F)(F)F)C1` [Compound 157, (3-amino-5-{[4-(trifluoromethyl)phenyl]sulfonyl}pyridin-2-yl)[3-(trifluoromethyl)azetidin-1-yl]methanone], the “% Activation” value on CFTR ΔF508 mutant came out at 101.2%; on CFTR G551D mutant, 28.8%. In addition, the negative logarithm of the EC50 (pEC50) at CFTR ΔF508 mutant is 7.47; at CFTR G551D mutant, less than 5.00.
For the compound `CCS(=O)(=O)c1cc(N)c(C(=O)NC[C@H](C)O)nc1C1CC1` [Compound 275, 3-amino-6-cyclopropyl-5-(ethylsulfonyl)-N-[(2S)-2-hydroxypropyl]pyridine-2-carboxamide], on CFTR ΔF508 mutant, the “% Activation” value turned out to be 68.5% and the pEC50 was less than 6.18. Further, on CFTR G551D mutant, the “% Activation” value is given as 4.2% and the negative-log EC50 (pEC50) was less than 5.00.
For the compound `CC1CC(C)CN(S(=O)(=O)c2cnc(C(=O)NCC(O)C(F)(F)F)c(N)c2)C1` (centres unmarked) [Compound 185, 3-amino-5-[(3,5-dimethylpiperidin-1-yl)sulfonyl]-N-(3,3,3-trifluoro-2-hydroxypropyl)pyridine-2-carboxamide], at CFTR ΔF508 mutant, the “% Activation” value was 111.3% and the negative-log EC50 (pEC50) was 8.54. Besides, on CFTR G551D mutant, the “% Activation” value is on record as 69.4% and the pEC50 was 5.95.
For `Nc1cc(S(=O)(=O)c2ccc(OC(F)(F)F)cc2)cnc1C(=O)NCCc1ccco1` [Compound 141, 3-amino-N-[2-(furan-2-yl)ethyl]-5-{[4-(trifluoromethoxy)phenyl]sulfonyl}pyridine-2-carboxamide], in that order: 100.6%, 6.96, 60.4% and 6.10.
As to `C[C@H](O)CCNC(=O)c1ncc(S(=O)(=O)c2ccc(OC(F)(F)F)cc2)cc1N` [Compound 53, 3-amino-N-[(3S)-3-hydroxybutyl]-5-{[4-(trifluoromethoxy)phenyl]sulfonyl}pyridine-2-carboxamide], on CFTR ΔF508 mutant, the “% Activation” value worked out at 95.6% and the pEC50 is 7.38. In addition, at CFTR G551D mutant, the “% Activation” value is on record as 54.0% and the pEC50 is 5.74.
Take `Nc1cc(S(=O)(=O)c2ccc(OC(F)(F)F)cc2)cnc1C(=O)N1CC(CO)C1` [Compound 66, (3-amino-5-{[4-(trifluoromethoxy)phenyl]sulfonyl}pyridin-2-yl)[3-(hydroxymethyl)azetidin-1-yl]methanone]: on CFTR ΔF508 mutant, the “% Activation” value stood at 106.0% and the negative logarithm of the EC50 (pEC50) is 7.90. On CFTR G551D mutant, the “% Activation” value came to 60.8% and the negative logarithm of the EC50 (pEC50) was 5.81.
Regarding `CC(C)[C@H](NC(=O)c1ncc(S(=O)(=O)c2ccc(OC(F)(F)F)cc2)cc1N)C(N)=O` [Compound 49, 3-amino-N-[(2S)-1-amino-3-methyl-1-oxobutan-2-yl]-5-{[4-(trifluoromethoxy)phenyl]sulfonyl}pyridine-2-carboxamide], at CFTR ΔF508 mutant, the “% Activation” value came out at 132.0% and the pEC50 was 6.90.
For `CCS(=O)(=O)c1cc(N)c(C(=O)NC[C@H](C)O)nc1-c1ccc(F)cc1` [Compound 263, 3-amino-5-(ethylsulfonyl)-6-(4-fluorophenyl)-N-[(2S)-2-hydroxypropyl]pyridine-2-carboxamide], at CFTR ΔF508 mutant, the “% Activation” value came out at 97.2% and the negative logarithm of the EC50 (pEC50) was 6.85. In addition, on CFTR G551D mutant, the “% Activation” value is 5.99% and the pEC50 is 5.70.
For the compound `CC(CC(N)=O)NC(=O)c1ncc(S(=O)(=O)c2ccc(OC(F)(F)F)cc2)cc1N` (centres unmarked) [Compound 55, 3-amino-N-(4-amino-4-oxobutan-2-yl)-5-{[4-(trifluoromethoxy)phenyl]sulfonyl}pyridine-2-carboxamide], on CFTR ΔF508 mutant, the “% Activation” value stood at 37.6% and the pEC50 was less than 5.70.
As for `Nc1cc(S(=O)(=O)c2ccc(OC(F)(F)F)cc2)cnc1C(=O)NC(CO)CO` [Compound 44, 3-amino-N-(1,3-dihydroxypropan-2-yl)-5-{[4-(trifluoromethoxy)phenyl]sulfonyl}pyridine-2-carboxamide], on CFTR ΔF508 mutant, the “% Activation” value is recorded as 73.9% and the pEC50 is 6.49.
`CCNC(=O)CNC(=O)c1ncc(S(=O)(=O)c2ccc(OC(F)(F)F)cc2)cc1N` [Compound 48, 3-amino-N-[2-(ethylamino)-2-oxoethyl]-5-{[4-(trifluoromethoxy)phenyl]sulfonyl}pyridine-2-carboxamide]: at CFTR ΔF508 mutant, the “% Activation” value was 103.0% and the pEC50 was 7.68.
Consider `CC(C)C[C@H](NC(=O)c1ncc(S(=O)(=O)c2ccc(OC(F)(F)F)cc2)cc1N)C(N)=O` [Compound 56, N^2-[(3-amino-5-{[4-(trifluoromethoxy)phenyl]sulfonyl}pyridin-2-yl)carbonyl]-L-leucinamide], for which, on CFTR ΔF508 mutant, the “% Activation” value was found to be 99.4% and the negative-log EC50 (pEC50) was 6.43.
In the case of `CC[C@H](NC(=O)c1ncc(S(=O)(=O)c2ccc(OC(F)(F)F)cc2)cc1N)C(N)=O` [Compound 93, 3-amino-N-[(2S)-1-amino-1-oxobutan-2-yl]-5-{[4-(trifluoromethoxy)phenyl]sulfonyl}pyridine-2-carboxamide], on CFTR ΔF508 mutant, the “% Activation” value is 96.5% and the negative-log EC50 (pEC50) is 7.02.
For `CNC(=O)[C@@H](NC(=O)c1ncc(S(=O)(=O)c2ccc(OC(F)(F)F)cc2)cc1N)C(C)(C)C` [Compound 47, 3-amino-N-[(2S)-3,3-dimethyl-1-(methylamino)-1-oxobutan-2-yl]-5-{[4-(trifluoromethoxy)phenyl]sulfonyl}pyridine-2-carboxamide], at CFTR ΔF508 mutant, the “% Activation” value is listed as 84.8% and the negative-log EC50 (pEC50) is 6.30.
As to `Nc1cc(S(=O)(=O)c2ccc(OC(F)(F)F)cc2)cnc1C(=O)NC1(C(F)(F)F)CCOCC1` [Compound 193, 3-amino-5-{[4-(trifluoromethoxy)phenyl]sulfonyl}-N-[4-(trifluoromethyl)tetrahydro-2H-pyran-4-yl]pyridine-2-carboxamide], at CFTR ΔF508 mutant, the “% Activation” value came out at 26.7% and the negative-log EC50 (pEC50) was less than 5.70.
As to `Cc1ccc(C(CO)NC(=O)c2ncc(S(=O)(=O)c3ccc(OC(F)(F)F)cc3)cc2N)cc1` (centres unmarked) [Compound 41, 3-amino-N-[2-hydroxy-1-(4-methylphenyl)ethyl]-5-{[4-(trifluoromethoxy)phenyl]sulfonyl}pyridine-2-carboxamide], on CFTR ΔF508 mutant, the “% Activation” value stood at 101.0% and the pEC50 was 6.74.
Turning to `Nc1cc(S(=O)(=O)c2ccccc2)c(C2CC2)nc1C(=O)NCCO` [Compound 260, 3-amino-6-cyclopropyl-N-(2-hydroxyethyl)-5-(phenylsulfonyl)pyridine-2-carboxamide], at CFTR ΔF508 mutant, the “% Activation” value was 85.2% and the negative logarithm of the EC50 (pEC50) is 7.37.
Taken in the same sequence, the figures for `COC[C@H](O)CNC(=O)c1ncc(S(=O)(=O)c2ccccc2)cc1N` [Compound 296, 3-amino-N-[(2R)-2-hydroxy-3-methoxypropyl]-5-(phenylsulfonyl)pyridine-2-carboxamide] were 82.1% and 7.40.
`CCNC(=O)C(C)NC(=O)c1ncc(S(=O)(=O)c2ccc(OC(F)(F)F)cc2)cc1N` (centres unmarked) [Compound 43, 3-amino-N-[1-(ethylamino)-1-oxopropan-2-yl]-5-{[4-(trifluoromethoxy)phenyl]sulfonyl}pyridine-2-carboxamide]: at CFTR ΔF508 mutant, the “% Activation” value came out at 92.6% and the pEC50 is 6.63.
With `Nc1cc(S(=O)(=O)c2ccc(OC(F)(F)F)cc2)cnc1C(=O)NCCCCO` [Compound 45, 3-amino-N-(4-hydroxybutyl)-5-{[4-(trifluoromethoxy)phenyl]sulfonyl}pyridine-2-carboxamide], on CFTR ΔF508 mutant, the “% Activation” value was found to be 93.6% and the pEC50 is 7.08.
With `COc1ccc(C(CO)NC(=O)c2ncc(S(=O)(=O)c3ccc(OC(F)(F)F)cc3)cc2N)cc1` (centres unmarked) [Compound 96, 3-amino-N-[2-hydroxy-1-(4-methoxyphenyl)ethyl]-5-{[4-(trifluoromethoxy)phenyl]sulfonyl}pyridine-2-carboxamide], on CFTR ΔF508 mutant, the “% Activation” value stood at 105.0% and the negative-log EC50 (pEC50) is 6.61.

As usually defined, the pEC50 is the negative decadic logarithm of the EC50, by convention in mol/L. Low readings indicate a large EC50, high ones a small EC50.

The values above are taken from US10047051B2, “Substituted pyridines and method of use” (AbbVie S.á{acute over (.)}r.l., priority 2015, dated 2018).
